Values quoted from earlier work as cited in patent US20140030313A1, “TREATMENT OF MENSTRUAL PAIN AND EXCESSIVE MENSTRUAL BLOOD LOSS BY INTRAVAGINAL ADMINISTRATION OF A LOW DOSE OF ANTIFIBRINOLYTIC OR HEMOSTATIC AGENT IN COMBINATION WITH NON-STEROIDAL ANTI-INFLAMMATORY DRUG” (ARSTAT Inc., priority 2011, published 2014).

Legend:
[1] = not given; remark: listed apart in the source
[2] = not given; remark: listed apart in the source
[3] = oral, 6 g/day
[4] = intravaginal tampon at 20% of the oral dose, vs oral capsules

Compound: NC[C@H]1CC[C@H](C(=O)O)CC1 [tranexamic acid]
- difference to placebo in reduction of large stains, small and large clots and changes in serum ferritin levels (tranexamic acid vs placebo treatment): no statistically significant differences
- incidence of postoperative bleeding complications ([1]; mouthwash, compared to placebo): reduce the incidence of postoperative bleeding complications
- plasma concentrations ([2]; after a mouth rinse): below 2 mcg/mL
- saliva concentrations, maximum level ([2]; after a mouth rinse): above 200 mcg/mL
- time saliva concentration remained at a therapeutic level ([2]; after a mouth rinse): more than two hours
- drug in saliva samples ([2]; after an oral tablet): not detected
- mean drug plasma concentrations ([2]; after an oral tablet): 7000 ng/mL
- risk of gastrointestinal adverse events [3]: increased

Compound: aprotinin
- plasma drug levels ([1]; locally administered): without detectable plasma drug levels
- postoperative blood loss ([1]; locally administered): Reduction of the postoperative blood loss

Compound: NC[C@H]1CC[C@H](C(=O)O)CC1 [Lysteda]
- subjects returned to normal MBL after treatment (mean on-treatment MBL of less than 80 mL) (Lysteda NDA medical review): 44%
- MBL reduction targets established by the FDA (oral, 3900 mg/day regimen): meets MBL reduction targets established by the FDA

Compound: Cc1cccc(Nc2ccccc2C(=O)O)c1C [mefenamic acid]
- pain relief [4]: pain relief equivalent to that achieved with the oral capsules
